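Values below derive from 48-hour exposures of cells grown in 96-well plates, with endpoints linearly interpolated between the two concentrations bracketing the appropriate inhibition level. The concentration for 50% growth inhibition is given as GI50.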 The source made the active and inactive calls. Rule as the data show it: active = GI50 up to about 1.1 µM and inactive = higher.
How the values were obtained:
Test in all cases: inhibition of tumour cell growth, NCI panel, 48 h
A549 = system: A549
RXF 393 = system: RXF 393
HT-29 = system: HT-29
PC-3 = system: PC-3
NCI/ADR-RES = system: NCI/ADR-RES
UO-31 = system: UO-31
NCI-H23 = system: NCI-H23
SNB-19 = system: SNB-19
SK-OV-3 = system: SK-OV-3
IGROV-1 = system: IGROV-1
NCI-H460 = system: NCI-H460
MDA-MB-231 = system: MDA-MB-231
SF-539 = system: SF-539
Hs-578T = system: Hs-578T
T47D = system: T47D
DU-145 = system: DU-145
SF-295 = system: SF-295
HL-60 = system: HL-60
KM12 = system: KM12
RPMI-8226 = system: RPMI-8226

| SMILES | GI50 (A549) | GI50 (RXF 393) | GI50 (HT-29) | GI50 (PC-3) | GI50 (NCI/ADR-RES) | GI50 (UO-31) | GI50 (NCI-H23) | GI50 (SNB-19) | GI50 (SK-OV-3) | GI50 (IGROV-1) | GI50 (NCI-H460) | GI50 (MDA-MB-231) | GI50 (SF-539) | GI50 (Hs-578T) | GI50 (T47D) | GI50 (DU-145) | GI50 (SF-295) | GI50 (HL-60) | GI50 (KM12) | GI50 (RPMI-8226) |
| --- | --- | --- | --- | --- | --- | --- | --- | --- | --- | --- | --- | --- | --- | --- | --- | --- | --- | --- | --- | --- |
| O=C(OCc1ccccc1CN1CCOCC1)c1cccc(Br)c1 | 28.7 µM (inactive) | 78.7 µM (inactive) | 16 µM (inactive) | 37.2 µM (inactive) | 26.7 µM (inactive) | 62.2 µM (inactive) | 27.9 µM (inactive) | 93.1 µM (inactive) | > 100 µM (inactive) | 19.7 µM (inactive) | 83.8 µM (inactive) | 33.7 µM (inactive) | 43.6 µM (inactive) | 29.9 µM (inactive) | 18.7 µM (inactive) | 71 µM (inactive) |  |  |  |  |
| Cc1cc(O)c(C(C)C)cc1NC(=O)Nc1cccc2ccccc12 | 17.5 µM (inactive) | 14.2 µM (inactive) | 17.5 µM (inactive) | 13.7 µM (inactive) | 20.9 µM (inactive) | 17.1 µM (inactive) | 19.3 µM (inactive) | 11.8 µM (inactive) |  | 14.3 µM (inactive) | 16.5 µM (inactive) | 17.7 µM (inactive) |  | 13.4 µM (inactive) | 13.2 µM (inactive) | 15 µM (inactive) | 13.8 µM (inactive) | 23.8 µM (inactive) | 15.7 µM (inactive) |  |
| CN1CCN(CCn2c3c4ccccc4ccc3c3oc(=O)c4ccccc4c32)CC1 | 3.97 µM (inactive) |  | 1.36 µM (inactive) | 2.03 µM (inactive) | 6.87 µM (inactive) | 2.19 µM (inactive) | 5.83 µM (inactive) | 4.51 µM (inactive) | 12.7 µM (inactive) | 13.2 µM (inactive) | 1.99 µM (inactive) | 1.8 µM (inactive) | 1.65 µM (inactive) | 4.79 µM (inactive) | > 10 µM (inactive) | > 10 µM (inactive) | 4.21 µM (inactive) | 2.15 µM (inactive) | 2.42 µM (inactive) | 2.61 µM (inactive) |
| O=C(Nc1ccc2nc(-c3ccccc3)cn2c1)Oc1ccccc1 | 55.5 µM (inactive) | 0.893 µM (active) | 43.1 µM (inactive) | > 100 µM (inactive) | 33.8 µM (inactive) | > 100 µM (inactive) | 99.1 µM (inactive) | 73.6 µM (inactive) | > 100 µM (inactive) | 57.3 µM (inactive) | 33.1 µM (inactive) | > 100 µM (inactive) |  | > 100 µM (inactive) | 19.1 µM (inactive) | 41.7 µM (inactive) | 57.9 µM (inactive) | 30.9 µM (inactive) | 24.9 µM (inactive) |  |
| CC(C)NC(=O)OCc1c(COC(=O)NC(C)C)n(C)c2c1ccc1cc(Cl)c(Cl)cc12 | 19.5 µM (inactive) | 12.2 µM (inactive) | 15.9 µM (inactive) | 14.9 µM (inactive) | 15.9 µM (inactive) | 16.7 µM (inactive) | 12.8 µM (inactive) | 13.4 µM (inactive) | 21.6 µM (inactive) | 10.5 µM (inactive) | 3.41 µM (inactive) | 12.7 µM (inactive) | 13.5 µM (inactive) | 23.8 µM (inactive) | 5.82 µM (inactive) |  | 16.6 µM (inactive) |  |  | 10.3 µM (inactive) |
| c1cc(-c2cnc(-c3ccc4c(c3)CCCO4)o2)ccn1 | 16.2 µM (inactive) | 13.5 µM (inactive) | 16.8 µM (inactive) | 11.8 µM (inactive) | 17.1 µM (inactive) | 12.3 µM (inactive) | 15.5 µM (inactive) | 11.9 µM (inactive) | 20.3 µM (inactive) | 17.9 µM (inactive) |  | 16.2 µM (inactive) | 9.1 µM (inactive) | 17.1 µM (inactive) | 16.6 µM (inactive) | 11.3 µM (inactive) | 20 µM (inactive) | 4.33 µM (inactive) |  | 6.24 µM (inactive) |
| c1ccc2c(c1)nc1n2C2CCC(C2)N1 (centres undefined) | > 10 µM (inactive) | > 10 µM (inactive) | > 10 µM (inactive) | > 10 µM (inactive) | > 10 µM (inactive) | > 10 µM (inactive) | > 10 µM (inactive) | > 10 µM (inactive) | > 10 µM (inactive) | > 10 µM (inactive) | > 10 µM (inactive) | > 10 µM (inactive) | > 10 µM (inactive) | > 10 µM (inactive) | > 10 µM (inactive) | > 10 µM (inactive) | > 10 µM (inactive) | > 10 µM (inactive) |  | > 10 µM (inactive) |
| CCN(CC)CCNc1ccc2ncn3c4c(OC)cccc4c(=O)c1c23 | 4.12 µM (inactive) | 2.45 µM (inactive) | 4.04 µM (inactive) | 3.97 µM (inactive) | 1.79 µM (inactive) | 4.38 µM (inactive) | 5.46 µM (inactive) | 6.15 µM (inactive) | 10.9 µM (inactive) | 5.41 µM (inactive) | 3 µM (inactive) | 7.55 µM (inactive) | 3.78 µM (inactive) | 11.6 µM (inactive) | 7.66 µM (inactive) | 4.5 µM (inactive) | 10.4 µM (inactive) |  | 4.26 µM (inactive) |  |
| c1ccc2nc(CCC3CCCCN3)ccc2c1 (centres undefined) | > 100 µM (inactive) | > 100 µM (inactive) | > 100 µM (inactive) | > 100 µM (inactive) | 49.5 µM (inactive) | 78.3 µM (inactive) | 72.9 µM (inactive) | > 100 µM (inactive) | > 100 µM (inactive) | 69.8 µM (inactive) | 87.9 µM (inactive) | > 100 µM (inactive) |  | > 100 µM (inactive) | 54.5 µM (inactive) | > 100 µM (inactive) | 53 µM (inactive) | 67.9 µM (inactive) | > 100 µM (inactive) | 39.9 µM (inactive) |
| CC(=O)c1ccc(Nc2nc3ccccc3c3occc23)cc1 | 11.1 µM (inactive) |  | 4.16 µM (inactive) | 22.4 µM (inactive) | 11.9 µM (inactive) | 20.4 µM (inactive) | 12.2 µM (inactive) | 34.8 µM (inactive) | 18.4 µM (inactive) | 9.06 µM (inactive) | 4.71 µM (inactive) | 13.1 µM (inactive) | 17.1 µM (inactive) | 15.3 µM (inactive) | 5.94 µM (inactive) | 16.6 µM (inactive) | 6.31 µM (inactive) | 0.036 µM (active) | 7.14 µM (inactive) | 5.48 µM (inactive) |
| CC1OC(OC2C(OC(=O)[C@]34CCC(C)(C)C[C@H]3C3=CC[C@@H]5[C@@]6(C)CC[C@H](OC7OC(C(=O)O)C(O)C(O)C7O)C(C)(C)[C@@H]6CC[C@@]5(C)[C@]3(C)C[C@H]4O)OCC(O)C2O)C(O)C(OC2OCC(O)(CO)C2O)C1OC1OCC(O)C(O)C1O (some centres undefined) | 3.9 µM (inactive) | 15.2 µM (inactive) | 3.53 µM (inactive) | 8.55 µM (inactive) | 13.3 µM (inactive) | 2.92 µM (inactive) | 2.59 µM (inactive) | 11 µM (inactive) | 15.6 µM (inactive) | 16 µM (inactive) | 18.2 µM (inactive) | 3.43 µM (inactive) |  | 20.3 µM (inactive) | 8.47 µM (inactive) | 12.9 µM (inactive) | 11.9 µM (inactive) | 3.19 µM (inactive) | 4.36 µM (inactive) | 7.23 µM (inactive) |
| c1ccc2c(c1)CCN1CCc3ccccc3C1C2 (centres undefined) | 35.8 µM (inactive) |  | 28.2 µM (inactive) | 43.7 µM (inactive) | 65.9 µM (inactive) | 18.1 µM (inactive) | 59.7 µM (inactive) | 82.8 µM (inactive) | 64 µM (inactive) | 48 µM (inactive) | 44.6 µM (inactive) | 42.3 µM (inactive) | 20.5 µM (inactive) | 68.5 µM (inactive) | > 100 µM (inactive) | > 100 µM (inactive) | 26.9 µM (inactive) | 76.9 µM (inactive) | 52.1 µM (inactive) | 43 µM (inactive) |
| O=C(O)CC(C(=O)O)c1ccccc1[N+](=O)[O-] (centres undefined) | > 100 µM (inactive) | > 100 µM (inactive) | > 100 µM (inactive) | > 100 µM (inactive) | > 100 µM (inactive) | 2.62 µM (inactive) | > 100 µM (inactive) | > 100 µM (inactive) | > 100 µM (inactive) | > 100 µM (inactive) | > 100 µM (inactive) | > 100 µM (inactive) |  | 25.6 µM (inactive) | > 100 µM (inactive) | > 100 µM (inactive) | > 100 µM (inactive) | > 100 µM (inactive) | > 100 µM (inactive) | > 100 µM (inactive) |
| CCCCCCCCCCCCCCCCCC(=O)Nc1ccn(C2CCC(COP(=O)(O)O)O2)c(=O)n1 (centres undefined) | > 100 µM (inactive) | > 100 µM (inactive) | > 100 µM (inactive) | > 100 µM (inactive) | > 100 µM (inactive) | > 100 µM (inactive) | > 100 µM (inactive) | > 100 µM (inactive) | > 100 µM (inactive) | > 100 µM (inactive) |  | > 100 µM (inactive) | > 100 µM (inactive) | > 100 µM (inactive) | > 100 µM (inactive) | > 100 µM (inactive) | > 100 µM (inactive) |  | > 100 µM (inactive) | > 100 µM (inactive) |
| COc1cc(C2SCC(=O)N2c2ccc(-n3c(-c4ccccc4)nc4ccccc4c3=O)cc2)ccc1O (centres undefined) | 74.8 µM (inactive) |  | > 100 µM (inactive) | > 100 µM (inactive) | 34.3 µM (inactive) | 11.8 µM (inactive) | > 100 µM (inactive) | > 100 µM (inactive) | 82 µM (inactive) | > 10 µM (inactive) | 69.5 µM (inactive) | 97.9 µM (inactive) | > 100 µM (inactive) | 22.3 µM (inactive) | 30 µM (inactive) | > 100 µM (inactive) | 84.5 µM (inactive) | > 100 µM (inactive) | 34.4 µM (inactive) | 76.4 µM (inactive) |
